Experimental data from ChEMBL document CHEMBL1131943, “Inhibition of 4-hydroxyphenylpyruvate dioxygenase by sethoxydim, a potent inhibitor of acetyl-coenzyme A carboxylase” (Bioorg Med Chem Lett, 1999).
One block for each compound: values may come before it.

How the values were obtained:
[1] = target: T1, 4-hydroxyphenylpyruvate dioxygenase (Sus scrofa, UniProt Q02110); test: The inhibitory activity on pig liver 4-hydroxyphenylpyruvate dioxygenase (HPPD) was evaluated.
[2] = target: T1, 4-hydroxyphenylpyruvate dioxygenase; test: Inhibitory activity on pig liver 4-hydroxyphenylpyruvate dioxygenase (HPPD) was evaluated
[3] = target: 4-hydroxyphenylpyruvate dioxygenase (Sus scrofa) (UniProt Q02110); test: Compound was evaluated for complete competitive inhibition of 4-hydroxyphenylpyruvate dioxygenase (HPPD)
[4] = target: T1, 4-hydroxyphenylpyruvate dioxygenase; test: Compound was evaluated for competitive inhibition of 4-hydroxyphenylpyruvate dioxygenase (HPPD) (complete inhibition was observed at a concentration of 0.5-1.0 mM)

T1 sequence (Q02110 whole entry): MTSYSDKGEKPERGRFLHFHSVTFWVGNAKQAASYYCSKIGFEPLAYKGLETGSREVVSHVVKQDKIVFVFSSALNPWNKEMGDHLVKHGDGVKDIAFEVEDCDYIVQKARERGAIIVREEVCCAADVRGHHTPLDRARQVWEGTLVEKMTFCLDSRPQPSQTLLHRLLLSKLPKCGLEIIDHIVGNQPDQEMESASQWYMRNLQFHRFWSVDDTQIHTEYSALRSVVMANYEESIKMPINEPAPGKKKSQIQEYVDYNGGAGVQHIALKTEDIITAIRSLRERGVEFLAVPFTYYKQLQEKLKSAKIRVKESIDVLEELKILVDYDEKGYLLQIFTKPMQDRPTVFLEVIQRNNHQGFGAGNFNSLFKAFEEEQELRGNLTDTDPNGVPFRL
Sequence of 4-hydroxyphenylpyruvate dioxygenase (Sus scrofa) (Q02110 2-393 limits assumed): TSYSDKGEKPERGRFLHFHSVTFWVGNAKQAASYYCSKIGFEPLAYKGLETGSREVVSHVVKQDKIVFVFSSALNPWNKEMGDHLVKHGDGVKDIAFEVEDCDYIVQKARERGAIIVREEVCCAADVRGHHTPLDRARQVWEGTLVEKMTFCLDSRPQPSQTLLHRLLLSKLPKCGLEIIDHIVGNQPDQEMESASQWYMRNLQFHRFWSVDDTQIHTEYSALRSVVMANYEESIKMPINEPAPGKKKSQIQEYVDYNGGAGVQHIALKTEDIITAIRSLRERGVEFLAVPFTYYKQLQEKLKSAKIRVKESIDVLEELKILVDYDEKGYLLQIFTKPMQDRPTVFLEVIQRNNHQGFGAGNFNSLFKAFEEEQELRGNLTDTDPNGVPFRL

IC50 [1]: 40 nM
Compound: O=C1CCCC(=O)C1=C(O)c1ccc(C(F)(F)F)cc1[N+](=O)[O-]

Compound: CS(=O)(=O)c1ccc(C(O)=C2C(=O)CCCC2=O)c(Cl)c1
IC50 [2]: 45 nM

Compound: CCC/C(=N\OCC)C1=C(O)CC(CC(C)SCC)CC1=O (centres undefined) [SETHOXYDIM]
IC100 [3]: 1 mM
Ki [4]: 300000 nM
